Data published in ChEMBL document CHEMBL1201862, “PubChem BioAssay data set” (2004).
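Test compounds were applied to cells in 96-well plates for 48 hours at 5 doses. At the GI50, growth is halved.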 Activity calls are given as the source filed them. No stated cut-off is given here; in the data, active = GI50 up to about 1.1 µM and inactive = higher.

Assays:
Test in all cases: NCI anticancer screen, dose series, 48 h
[1] = tested on: RXF 393
[2] = tested on: HCT-116
[3] = tested on: SW-620
[4] = tested on: MDA-MB-435
[5] = tested on: KM12
[6] = tested on: OVCAR-3
[7] = tested on: A498
[8] = tested on: MCF7
[9] = tested on: NCI/ADR-RES
[10] = tested on: M14
[11] = tested on: CAKI-1
[12] = tested on: SNB-19
[13] = tested on: DU-145
[14] = tested on: HCT-15
[15] = tested on: TK-10
[16] = tested on: SN12C
[17] = tested on: Malme-3M
[18] = tested on: LOX IMVI
[19] = tested on: NCI-H226
[20] = tested on: EKVX
[21] = tested on: ACHN
[22] = tested on: HL-60
[23] = tested on: UO-31
[24] = tested on: CCRF-CEM
[25] = tested on: SF-268
[26] = tested on: T47D
[27] = tested on: MDA-MB-231
[28] = tested on: OVCAR-8
[29] = tested on: SK-MEL-2
[30] = tested on: NCI-H23
[31] = tested on: 786-0
[32] = tested on: HCC 2998
[33] = tested on: COLO 205
[34] = tested on: SF-295
[35] = tested on: SF-539
[36] = tested on: UACC-62
[37] = tested on: MOLT-4
[38] = tested on: RPMI-8226
[39] = tested on: HOP-92
[40] = tested on: NCI-H460
[41] = tested on: A549
[42] = tested on: SK-MEL-5
[43] = tested on: IGROV-1
[44] = tested on: U-251
[45] = tested on: OVCAR-4
[46] = tested on: SNB-75
[47] = tested on: SK-OV-3
[48] = tested on: NCI-H522
[49] = tested on: HT-29
[50] = tested on: SK-MEL-28
[51] = tested on: UACC-257
[52] = tested on: Hs-578T

O=C(CSCC(=O)N/N=C\c1ccccc1F)N/N=C\c1ccccc1F
GI50 [1]: > 100 µM (inactive)
GI50 [2]: > 100 µM (inactive)
GI50 [3]: > 100 µM (inactive)
GI50 [4]: 68.5 µM (inactive)
GI50 [5]: 92.9 µM (inactive)
GI50 [6]: 27 µM (inactive)
GI50 [7]: > 100 µM (inactive)
GI50 [8]: > 100 µM (inactive)
GI50 [9]: 14 µM (inactive)
GI50 [10]: > 100 µM (inactive)
GI50 [11]: > 100 µM (inactive)
GI50 [12]: > 100 µM (inactive)
GI50 [13]: > 100 µM (inactive)
GI50 [14]: 63.2 µM
GI50 [15]: > 100 µM (inactive)
GI50 [16]: > 100 µM (inactive)
GI50 [17]: > 100 µM (inactive)
GI50 [18]: > 100 µM (inactive)
GI50 [19]: 87.5 µM (inactive)
GI50 [20]: > 100 µM (inactive)
GI50 [21]: > 100 µM (inactive)
GI50 [22]: > 100 µM (inactive)
GI50 [23]: > 100 µM (inactive)
GI50 [24]: 90.4 µM (inactive)
GI50 [25]: > 100 µM (inactive)
GI50 [26]: 77.6 µM (inactive)
GI50 [27]: > 100 µM (inactive)
GI50 [28]: 49.9 µM (inactive)
GI50 [29]: > 100 µM (inactive)
GI50 [30]: > 100 µM (inactive)
GI50 [31]: > 100 µM (inactive)
GI50 [32]: 38.5 µM (inactive)
GI50 [33]: > 100 µM (inactive)
GI50 [34]: 41.7 µM (inactive)
GI50 [35]: > 100 µM (inactive)
GI50 [36]: > 100 µM (inactive)
GI50 [37]: 63.2 µM (inactive)
GI50 [38]: 36.3 µM (inactive)
GI50 [39]: > 100 µM (inactive)
GI50 [40]: 99.5 µM (inactive)
GI50 [41]: > 100 µM (inactive)
GI50 [42]: 64.1 µM (inactive)
GI50 [43]: > 100 µM (inactive)
GI50 [44]: 67.3 µM (inactive)
GI50 [45]: > 100 µM (inactive)
GI50 [46]: > 100 µM (inactive)
GI50 [47]: > 100 µM (inactive)
GI50 [48]: 64.6 µM (inactive)
GI50 [49]: > 100 µM (inactive)
GI50 [50]: > 100 µM (inactive)
GI50 [51]: > 100 µM (inactive)
GI50 [52]: > 100 µM (inactive)
